B1: nesfatin-3: 231 residues, amino acid Nos. 190 to 420 of nesfatin (SEQ ID NO: 17), cell-free protein synthesis, Met added (protein, listed as Rattus norvegicus)
chain: EYLKTLSEEKRKEEEAKFAEMKRKHEDHPKVNHPGSKDQLKEVWEETDGLDPNDFDPKTFFKLHDVNNDGFLDEQELEALFTKELDKVYNPQNAEDDMIEMEEERLRMREHVMNEIDNNKDRLVTLEEFLRATEKKEFLEPDSWETLDQQQLFTEEELKEYESIIAIQESELKKKADELQKQKEELQRQHDHLEAQKQEYQQAVQQLEQKKFQQGIAPSGPAGELKFEPHT
modifications: N-terminal Met added
B2: nesfatin-2: 79-residue peptide, amino acid Nos. 109 to 187 of nesfatin (SEQ ID NO: 16) (peptide, listed as Rattus norvegicus)
chain: QEVGRLRMLIKAKLDALQDTGMNHHLLLKQFEHLNHQNPDTFESKDLDMLIKAATADLEQYDRTRHEEFKKYEMMKEHE
B3: nesfatin-2/3: portion of the sequence consisting of nesfatin-2 and nesfatin-3 (SEQ ID NO: 47), cell-free protein synthesis (protein, listed as Rattus norvegicus)
chain: QEVGRLRMLIKAKLDALQDTGMNHHLLLKQFEHLNHQNPDTFESKDLDMLIKAATADLEQYDRTRHEEFKKYEMMKEHERREYLKTLSEEKRKEEEAKFAEMKRKHEDHPKVNHPGSKDQLKEVWEETDGLDPNDFDPKTFFKLHDVNNDGFLDEQELEALFTKELDKVYNPQNAEDDMIEMEEERLRMREHVMNEIDNNKDRLVTLEEFLRATEKKEFLEPDSWETLDQQQLFTEEELKEYESIIAIQESELKKKADELQKQKEELQRQHDHLEAQKQEYQQAVQQLEQKKFQQGIAPSGPAGELKFEPHT
B4: leptin: Rat leptin: R & D Systems, 598-LP-01M; known to suppress food intake by intraventricular administration (protein)
chain: VPIHKVQDDTKTLIKTIVTRINDISHTQSVSARQRVTGLDFIPGLHPILSLSKMDQTLAVYQQILTSLPSQNVLQIAHDLENLRDLLHLLAFSKSCSLPQTRGLQKPESLDGVLEASLYSTEVVALSRLQGSLQDILQQLDLSPEC

Tests used:
ICR mice = assay: Intraperitoneal administration of partial peptides of nesfatin-1 / nesfatin-1M30 / NUCB1-M30 to ICR mice, food intake; format: in vivo, mouse; settings: 0-3 hours
Procedure: Each peptide of nesfatin-1N23, nesfatin-1M30 and nesfatin-1C29 used was a synthetic peptide of which production was referred to Biologica Co., Ltd. and was purified by HPLC to a purity of 95% or higher. Each peptide was prepared in physiological saline so as to contain 50 nmol per 200 μl, which was used as the sample, and as the control sample physiological saline (Vehicle) alone was used. Using a tuberculin syringe equipped with a 25G needle, 200 μl each of the samples was administered once into the abdominal cavity of each mouse (5 animals per group), and the time of administration was immediately before the start (6 p.m.) of the dark period. Mice used were male ICR mice (Nippon SLC) and the housing condition was similar to those in Working Example 18.
Each mouse that received administration was placed in an individual cage, and during 0-3 hours after the administration the weight decreased of the pellet food was measured to determine the amount of food intake. For testing of significant difference, analysis of variance was used.
Each peptide was prepared in physiological saline so as to contain 10 pmol per 100 μl, which was used as the sample for administration, and as the control sample physiological saline (Vehicle) alone was used. The physiological saline as the control and the peptide samples prepared were intraperitoneally administered at 100 μl per mouse (6 animals per group). Mice used were male ICR mice (Nippon SLC) and the housing condition and the experimental condition were similar to those in Working Example 18.
Each of the prepared human nesfatin-1M30 and mouse NUCB1-M30 was prepared in physiological saline so as to contain 10 pmol per 100 μl, which was used as the sample for administration.
The physiological saline as the control and the peptide sample prepared were intraperitoneally administered at 100 μl per mouse (n=6 per group). Mice used were male ICR mice (Nippon SLC) and the housing condition and the experimental condition were similar to those in Working Example 18.

Wistar rats = assay: Administration of nesfatin-1, nesfatin-2, nesfatin-3, nesfatin-2/3 into the third ventricle, amount of food intake; format: in vivo, rat; settings: for amount of food intake: 25 pmol into the third ventricle before dark period, 0-1 hr and 1-3 hr, vs control
Procedure: Samples used for intracerebral administration were PBS alone (vehicle group), or nesfatin-1, nesfatin-2, nesfatin-3 or nesfatin-2/3 prepared in Working Example 10 each dissolved in PBS, and 25 pmol was administered per individual into the third ventricle immediately before the dark period. Rats used were Wistar rats (purchased from Nippon SLC) and were housed as in Working Example 6, and among 8-9 week-old male Wistar rats, those individuals weighing 200-250 g were selected and used (N=5). The technique of intraventricular administration and the measurement of the amount of food intake in rats were carried out in a method similar to those in Working Example 6. In the measurement of the amount of food intake, the reduced amount of food at 1 hour after administration (0-1 hr) and 2 hours after administration (1-3 hrs) was determined as food intake.
In the same condition above, 1, 5 or 25 pmol of nesfatin-1 as a sample was administered per rat individual into the third ventricle immediately before the dark period. In this experiment, the amount of food intake was determined at 1 hour after administration (0-1 hr).
The experimental condition was similar to that in Working Example 12, and 5 pmol of nesfatin-1 was administered into the third ventricle of the rat brain immediately before the start of the dark period, the amount decreased of the food (the amount of food intake) during 1 hour immediately after administration (0-1 hr), during 2 hours from 1 hour after the administration (1-3 hr), during 3 hours from 3 hours after the administration (3-6 hr), and during 6 hours from 6 hours after the administration (6-12 hr) was measured as the amount of food intake. As the control group, the amount of food intake by individuals that received physiological saline alone was measured.
The experimental condition was similar to that in Working Example 12, and for a group that received 5 pmol of nesfatin-1 alone into the third ventricle of the rat brain immediately before the start of the dark period and a group that received 5 pmol of nesfatin-1 and 8 μg of anti-nesfatin-1 antibody (nesfatin-1 IgG), the amount of food intake for 1 hour after administration was measured and compared to that for the control group (physiological saline alone was administered). Also, for a group that received only leptin (Rat leptin: R & D Systems, 598-LP-01M) (1 μg) which is known to have an activity of suppressing food intake by intraventricular administration and a group that received leptin and anti-nesfatin-1 antibody, its effect on food intake was also studied.

[1] = 10 pmol per 100 μl ip, partial peptides of nesfatin-1M30, vs saline
[2] = 10 pmol per 100 μl ip, Working Example 23, vs Vehicle

Molecule | amount of food intake (ICR mice; [1]) | amount of food intake (Wistar rats) | further results
N-LysGlnValIleGluValLeuGluThrAsp-C (KQVIEVLETD; listed as Mus musculus) [nesfatin-1M10M] | significant effect of suppressing food intake |  | 
N-ValLeuGluThrAspProHisPheArgGluLysLeuGlnLys-C (VLETDPHFREKLQK; listed as Mus musculus) [nesfatin-1M14] | significant effect of suppressing food intake |  | 
human nesfatin-1M30: human nesfatin-1M30 (SEQ ID NO: 39), chemical synthesis (PDTGLYYDEYLKQVIDVLETDKHFREKLQK; listed as Homo sapiens) |  |  | amount of food intake (ICR mice; [2]): significant effect of suppressing food intake
mouse NUCB1-M30: site of mouse NUCB1 corresponding to nesfatin-1M30 (SEQ ID NO: 103) (PDTGLYYHRYLQEVINVLETDGHFREKLQA; listed as Mus musculus) |  |  | amount of food intake (ICR mice; [2]): significant effect of suppressing food intake
nesfatin-1C29: amino acid numbers 54 to 82 of mouse nesfatin-1 (SEQ ID NO: 43) (ADIEEIRSGRLSQELDLVSHKVRTRLDEL; listed as Mus musculus) |  |  | amount of food intake (ICR mice; 50 nmol per 200 μl ip, vs Vehicle): no significant decrease or enhancement in the amount of food intake
nesfatin-1M16: 16-amino acid partial peptide of mouse nesfatin-1M30 (SEQ ID NO: 71) (PDTGLYYDEYLKQVIE; listed as Mus musculus) | significant effect of suppressing food intake |  | 
B1 |  | did not exhibit any significant changes in the amount of food intake | 
B2 |  | did not exhibit any significant changes in the amount of food intake | 
B3 |  | did not exhibit any significant changes in the amount of food intake | 
B4 |  |  | amount of food intake for 1 hour after administration (Wistar rats; given alone into the third ventricle (nesfatin-1 5 pmol; leptin 1 μg), vs saline control): decreased

Reference: US7795390B2, “Biological substance nesfatin and its related substances and uses thereof” (Teijin Pharma Limited, priority 2005, dated 2010)
